One series concerns the target hERG (Homo sapiens, UniProt Q12809). As to the kind of experiment: in vitro. The method, then: Materials and Methods: CHO cells (transformed with adenovirus 5 DNA; Stably transfected with full length hERG cDNA) were cultured in Ham's F-12 supplemented with 10% fetal bovine serum, 100 U/mL penicillin G sodium, 100 μg/mL streptomycin sulfate and 400 μg/mL Zeocin. Before testing, cells in culture dishes were rinsed with Hank's Balanced Salt Solution, detached with accutase.
HEPES-buffered intracellular solution (Charles River proprietary) for whole cell recordings was loaded into the intracellular compartment of the SP384PE. Extracellular buffer (HB-PS) and Cell suspension (in HB-PS) were pipetted into the extracellular compartment of the SP384PE chip. After establishment of a whole-cell configuration, membrane currents were recorded using patch clamp amplifier in the SP384PE system.
Test article (TA) concentrations (eight (8) concentrations of each test article were evaluated) were applied to naïve cells (n=4, where n=replicates/concentration). Each application consisted of addition of 40 μL of 2× concentrated test article solution to the total 80 μL of final volume of the extracellular well of the SP384PE chip. Duration of exposure to each compound concentration was five (5) minutes.
hERG current was measured using stimulus voltage patterns with fixed amplitudes: activation pre-pulse (TP1) to +40 mV for 2 s and test pulse (TP2) to −40 mV for 2 s from a holding potential of −80 mV. hERG current was measured as the outward peak current at TP2 (tail current). The stimulation was repeated with 0.1 Hz frequency during 2 min as baseline and 5 min after TA application.
Data acquisition and analyses were performed using the SP384PE system operation software. The decrease in current amplitude after TA application was used to calculate the percent block relative to control.
Tonic Block effect was calculated as:
[formula] • where ITP2, baseline and ITP2, TA were the outward peak K^+ currents elicited by the TP2 before application and 5 min after application of a test article, respectively.
The data were corrected for run-down:
[formula] • where % VC and % PC were the mean values of the current block with the vehicle and positive controls, respectively.
Concentration-response data were fitted to an equation of the following form:
[formula] • where [Test] was the concentration of test article, IC50 was the concentration of the test article producing half-maximal block, N was the Hill coefficient, % VC was the mean current block at the vehicle control and % Block was the percentage of ion channel current inhibited at each concentration of a test article. Nonlinear least squares fits were solved with the XLfit add-in for Excel (Microsoft, Redmond, WA).
In this study, hERG Ion channel block of IC50 values were determined. […] In brief, CHO cells were cultured in Ham's F-12 supplemented with 10% fetal bovine serum, 100 U/mL penicillin G sodium, 100 μg/mL streptomycin sulfate and 400 μg/mL Zeocin. Before testing, cells in culture dishes were rinsed with Hank's Balanced Salt Solution, detached with accutase. […] Test article (TA) concentrations were applied to naïve cells (n=4, where n=replicates/concentration). Each application consisted of addition of 40 μL of 2× concentrated test article solution to the total 80 μL of final volume of the extracellular well of the SP384PE chip. Duration of exposure to each compound concentration was five (5) minutes. hERG current was measured using stimulus voltage patterns with fixed amplitudes: activation pre-pulse (TP1) to +40 mV for 2 s and test pulse (TP2) to −40 mV for 2 s from a holding potential of −80 mV. hERG current was measured as the outward peak current at TP2 (tail current). The stimulation was repeated with 0.1 Hz frequency during 2 min as baseline and 5 min after TA application. Data acquisition and analyses were performed using the SP384PE system operation software.

A short description of series [1]: Mouse pharmacokinetics (oral cassette dosing), plasma. The series is classed as in vivo. Particulars: female, mouse, BALB/c immunocompetent mice, 5 mg/kg p.o.; for AUC(0-t): read-out: AUC0-t; for Cmax: read-out: Cmax; for Tmax: read-out: Tmax. The method, then:
Female mice (BALC/c) received a single dose (3 mice/treatment) of vehicle (10% 1N HCl:90% [20% […]) and at 0.5, 1, 2, 4, 8, 12 and 24-hour post dose humanely euthanized.
Blood was obtained through cardiac puncture into K+EDTA tubes, mixed by inversion and centrifuged to obtain the plasma. Blood will be kept on ice or at approximately 4° C. prior. Centrifugation will take place within 30 minutes of blood collection affording plasma samples. Plasma samples will be frozen as soon as possible after centrifugation and stored at −80° C. until analysis. All samples will be analysed by means of LC-MS/MS. Method development for bioanalysis will be performed by pharmacokinetics Department of Crown Bioscience (Taicang) Inc. using LC-MS/MS analysis (using Waters HSS T3 2.1×50 mm (1.8 um) LC column, and an API-4000 Electrospray MS unit). The results of a kinetic solubility (free base) study are represented in Table 19.

Series [2] can be described thus: Hepatocyte stability, cynomolgus monkey. Particulars: 0.5 million cells/ml; for half-life at 2 μM: cynomolgus monkey hepatocytes; for CLint scaled at 2 μM: cynomolgus monkey, hepatocytes. The series is classed as in vitro ADME. The protocol: (§1) In this study, human, cynomolgus monkey, beagle dog, wistar hannover rat, and balb/c mouse hepatocyle stability was determined.

A short description of series [3]: Hepatocyte stability, beagle dog. The series is classed as in vitro ADME. To be noted: 0.5 million cells/ml; for half-life at 2 μM: beagle dog hepatocytes; for CLint scaled at 2 μM: beagle, dog, hepatocytes. The method, then: as §1
In the next series the target is T1, CYP1A2 (Homo sapiens, UniProt P05177).
T1 sequence (P05177 1-516): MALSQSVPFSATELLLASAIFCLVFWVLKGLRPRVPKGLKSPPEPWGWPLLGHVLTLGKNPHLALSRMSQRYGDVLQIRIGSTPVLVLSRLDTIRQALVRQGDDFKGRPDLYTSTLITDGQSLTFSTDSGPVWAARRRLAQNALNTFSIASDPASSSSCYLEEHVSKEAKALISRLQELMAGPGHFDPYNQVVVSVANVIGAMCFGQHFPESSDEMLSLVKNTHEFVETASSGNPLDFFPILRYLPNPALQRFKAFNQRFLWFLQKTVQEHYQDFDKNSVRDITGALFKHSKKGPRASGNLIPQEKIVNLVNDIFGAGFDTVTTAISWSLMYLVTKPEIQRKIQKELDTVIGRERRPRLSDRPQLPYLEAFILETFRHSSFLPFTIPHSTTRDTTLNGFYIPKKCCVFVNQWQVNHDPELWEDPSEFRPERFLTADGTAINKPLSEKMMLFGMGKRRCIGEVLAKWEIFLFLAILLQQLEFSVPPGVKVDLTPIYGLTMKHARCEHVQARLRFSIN
The experiment in a line: CYP450 panel inhibition in human liver microsomes, 1A2 (phenacetin). To be noted: for inhibition at 30 min, 10 µM: human, microsomes, pH 7.4.

In a further series the target is CYP2C19 (Homo sapiens, UniProt P33261). As to the kind of experiment: CYP450 panel inhibition in human liver microsomes, 2C19 (mephenytoin). Particulars: 10 μM, substrate mephenytoin. A general note: Microsomes from liver hold many membrane-bound enzymes, among them those of drug oxidation.
Chain of CYP2C19 (P33261 whole entry): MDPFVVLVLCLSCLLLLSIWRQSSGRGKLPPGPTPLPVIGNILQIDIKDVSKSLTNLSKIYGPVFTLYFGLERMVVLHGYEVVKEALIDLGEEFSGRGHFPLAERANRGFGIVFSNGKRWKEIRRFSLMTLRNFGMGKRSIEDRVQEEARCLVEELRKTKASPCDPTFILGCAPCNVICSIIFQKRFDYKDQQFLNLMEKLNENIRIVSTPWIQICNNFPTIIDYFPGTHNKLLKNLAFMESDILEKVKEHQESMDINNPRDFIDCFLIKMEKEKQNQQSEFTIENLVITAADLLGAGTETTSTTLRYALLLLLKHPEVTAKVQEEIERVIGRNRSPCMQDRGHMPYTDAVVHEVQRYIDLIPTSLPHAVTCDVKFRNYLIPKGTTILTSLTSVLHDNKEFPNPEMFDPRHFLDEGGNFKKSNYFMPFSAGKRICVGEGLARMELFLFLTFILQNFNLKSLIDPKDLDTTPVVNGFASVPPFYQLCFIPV
Setting [4] is: read-out: CLint (L/hr/kg) (converted).

For orientation: IC50 means the midpoint of a concentration-inhibition curve. The AUC(0-inf) is total exposure, with the tail of the curve extrapolated. As usually defined, the half-life is the time in which the quantity being followed falls by half. As a reminder, the Cmax is the peak of the concentration-time curve. A word on the Tmax: it is the time at which the peak concentration occurs. A word on the inhibition: it is the drop in the measured response relative to a control, in per cent.

SMILES strings stand for the structures. Counter-ions that a name gives are not always drawn.

Chain of hERG (Q12809 whole entry): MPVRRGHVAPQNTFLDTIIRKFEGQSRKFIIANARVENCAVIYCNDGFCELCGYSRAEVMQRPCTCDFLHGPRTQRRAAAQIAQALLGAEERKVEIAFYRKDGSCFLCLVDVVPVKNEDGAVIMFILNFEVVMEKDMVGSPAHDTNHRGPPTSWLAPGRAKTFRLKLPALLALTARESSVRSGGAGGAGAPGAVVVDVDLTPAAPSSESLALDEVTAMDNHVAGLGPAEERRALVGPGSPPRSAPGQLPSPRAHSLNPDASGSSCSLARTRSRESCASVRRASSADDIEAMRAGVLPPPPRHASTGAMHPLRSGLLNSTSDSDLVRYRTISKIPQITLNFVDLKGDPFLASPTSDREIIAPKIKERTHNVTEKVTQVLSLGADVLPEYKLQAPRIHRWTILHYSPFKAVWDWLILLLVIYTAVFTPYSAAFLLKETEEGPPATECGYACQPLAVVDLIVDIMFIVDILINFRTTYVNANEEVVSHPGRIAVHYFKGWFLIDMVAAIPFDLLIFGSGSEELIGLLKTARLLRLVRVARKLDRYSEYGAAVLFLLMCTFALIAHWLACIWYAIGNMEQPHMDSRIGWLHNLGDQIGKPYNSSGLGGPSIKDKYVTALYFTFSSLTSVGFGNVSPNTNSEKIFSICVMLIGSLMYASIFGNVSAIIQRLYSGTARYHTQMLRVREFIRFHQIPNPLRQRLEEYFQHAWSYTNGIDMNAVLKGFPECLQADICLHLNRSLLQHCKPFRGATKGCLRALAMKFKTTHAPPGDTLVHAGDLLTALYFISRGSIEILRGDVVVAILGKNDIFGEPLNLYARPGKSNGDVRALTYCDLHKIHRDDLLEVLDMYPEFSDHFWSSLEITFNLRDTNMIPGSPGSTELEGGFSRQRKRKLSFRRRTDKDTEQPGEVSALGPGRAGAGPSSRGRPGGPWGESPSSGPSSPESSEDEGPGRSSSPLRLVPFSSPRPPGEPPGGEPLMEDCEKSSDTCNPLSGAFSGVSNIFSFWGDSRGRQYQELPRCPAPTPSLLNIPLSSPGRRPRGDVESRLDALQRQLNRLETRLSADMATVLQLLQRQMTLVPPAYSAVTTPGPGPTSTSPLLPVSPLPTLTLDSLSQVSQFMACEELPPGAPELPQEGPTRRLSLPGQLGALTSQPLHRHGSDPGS

`Cn1cnc2c(F)c(Nc3ccc(Br)cc3Cl)c(C(=O)NOCCO)cc21` [Reference-1, Selumetinib]: the IC50 at 5 min on hERG (human) was above 30 µM.

`CCN(C)Cc1c(Cc2cccc(NS(=O)(=O)NC)c2F)c(=O)oc2cc(OC(=O)N(C)C)c(F)cc12` [Compound 238] registered an IC50 at hERG of 19.4 µM. Moreover, in series [1], the AUC(0-inf) is 434 ng·h/mL, the half-life is 1 h, the AUC(0-t) came out at 416 ng·h/mL and the Cmax came to 857 ng/mL. Also, the Tmax in series [1] came out at 0.083 h. Moreover, the half-life at 2 μM in series [2] is 0.953 h. Also, the CLint scaled at 2 μM in series [2] (setting [4]) is 5.89 L/h/kg. The CLint scaled at 2 μM in series [2] (read-out: CLint (mL/min/kg)) amounted to 5.89 L/h/kg. The same compound had a half-life at 2 μM in series [3] of 1.19 h. In addition, the CLint scaled at 2 μM in series [3] (setting [4]) was 6.28 L/h/kg. For the same compound, the CLint scaled at 2 μM in series [3] (read-out: CLint (mL/min/kg)) amounted to 6.3 L/h/kg.

`CNS(=O)(=O)Nc1cccc(Cc2c(CN3CCNCC3)c3cc(Cl)c(OC(=O)N(C)C)cc3oc2=O)c1Cl` [Compound 256, 6-chloro-3-(2-chloro-3-((N-methylsulfamoyl)amino)benzyl)-2-oxo-4-(piperazin-1-ylmethyl)-2H-chromen-7-yl dimethylcarbamate hydrochloride]: the IC50 on hERG amounted to 21.6 µM. In series [1], this compound returned an AUC(0-inf) of 28.3 ng·h/mL. Also, the AUC(0-t) in series [1] is 19.5 ng·h/mL. Moreover, the Cmax in series [1] came to 8.3 ng/mL. In addition, the Tmax in series [1] was found to be 0.5 h. Moreover, the half-life at 2 μM in series [2] was 2.25 h; in series [3] it was 2.98 h. The CLint scaled at 2 μM in series [2] (setting [4]), in series [2] (read-out: CLint (mL/min/kg)), in series [3] (setting [4]) and in series [3] (read-out: CLint (mL/min/kg)) was 2.5 L/h/kg each time. Also, the inhibition at 30 min, 10 µM against CYP1A2 was 6.2%.

Regarding `CCN(C)Cc1c(Cc2cccc(NS(=O)(=O)NC)c2Cl)c(=O)oc2cc(OC(=O)N(C)C)ccc12` [Compound 245, 3-(2-chloro-3-((N-methylsulfamoyl)amino)benzyl)-4-((ethyl(methyl)amino)methyl)-2-oxo-2H-chromen-7-yl dimethylcarbamate], 16.1 µM corresponded to half-maximal inhibition at hERG (IC50). In series [1], the AUC(0-t) is 154 ng·h/mL. For the same compound, in series [1], the Cmax is 384 ng/mL. Further, in series [1], the Tmax was 0.083 h. Also, the half-life at 2 μM in series [2] is 0.407 h; in series [3], 0.953 h. The CLint scaled at 2 μM in series [2] (setting [4]) is 13.8 L/h/kg; in series [2] (read-out: CLint (mL/min/kg)), 13.8 L/h/kg; in series [3] (setting [4]), 7.81 L/h/kg; in series [3] (read-out: CLint (mL/min/kg)) it was 7.8 L/h/kg. In addition, at CYP1A2, the inhibition at 30 min, 10 µM was -0.3%.

With `CNS(=O)(=O)Nc1cccc(Cc2c(CN3CCNCC3)c3ccc(OC(=O)N(C)C)cc3oc2=O)c1Cl` [Compound 246, 3-(2-chloro-3-((N-methylsulfamoyl)amino)benzyl)-2-oxo-4-(piperazin-1-ylmethyl)-2H-chromen-7-yl dimethylcarbamate hydrochloride], at hERG, the IC50 was above 30 µM. Moreover, the figures for the half-life at 2 μM in series [2] and in series [3] were 6.75 h and 6.07 h, respectively. The CLint scaled at 2 μM is 0.832 L/h/kg in series [2] (setting [4]), 0.834 L/h/kg in series [2] (read-out: CLint (mL/min/kg)), 1.23 L/h/kg in series [3] (setting [4]) and 1.23 L/h/kg in series [3] (read-out: CLint (mL/min/kg)). At CYP1A2, the inhibition at 30 min, 10 µM is -3.7%.

Regarding `CNS(=O)(=O)Nc1cccc(Cc2c(CN(C)C)c3ccc(OC(=O)N(C)C)cc3oc2=O)c1Cl` [Compound 274, 3-(2-chloro-3-((N-methylsulfamoyl)amino)benzyl)-4-((dimethylamino)methyl)-2-oxo-2H-chromen-7-yl dimethylcarbamate], the IC50 against hERG was above 30 µM. In series [1], the AUC(0-inf) is 396 ng·h/mL, the half-life is 0.3 h, the AUC(0-t) was 392 ng·h/mL and the Cmax amounted to 796 ng/mL. Also, the Tmax in series [1] worked out at 0.083 h. In series [2], this compound yielded a half-life at 2 μM of 0.985 h. For the same compound, the CLint scaled at 2 μM in series [2] (setting [4]) was 5.7 L/h/kg. Moreover, in series [2] (read-out: CLint (mL/min/kg)), the CLint scaled at 2 μM is 5.69 L/h/kg. The compound further gave a half-life at 2 μM in series [3] of 2.12 h. For the same compound, the CLint scaled at 2 μM in series [3] (setting [4]) is 3.52 L/h/kg. Further, the CLint scaled at 2 μM in series [3] (read-out: CLint (mL/min/kg)) is 3.52 L/h/kg. Besides, the inhibition at 30 min, 10 µM at CYP1A2 is -3.4%.

On hERG, `CCS(=O)(=O)Nc1cccc(Cc2c(CN3CCNCC3)c3cc(Cl)c(OC(=O)N(C)C)cc3oc2=O)c1Cl` [Compound 257, 6-chloro-3-(2-chloro-3-(ethylsulfonamido)benzyl)-2-oxo-4-(piperazin-1-ylmethyl)-2H-chromen-7-yl dimethylcarbamate hydrochloride] registered an IC50 of 8.4 µM. In addition, the AUC(0-t) in series [1] worked out at 103 ng·h/mL. In series [1], the Cmax was found to be 20.3 ng/mL. The Tmax in series [1] is 4 h. In addition, the half-life at 2 μM in series [2] amounted to 2.98 h; in series [3], 1.88 h. Moreover, the CLint scaled at 2 μM is 1.88 L/h/kg in series [2] (setting [4]), 1.88 L/h/kg in series [2] (read-out: CLint (mL/min/kg)), 3.96 L/h/kg in series [3] (setting [4]) and 3.97 L/h/kg in series [3] (read-out: CLint (mL/min/kg)). In addition, the inhibition at 30 min, 10 µM on CYP1A2 was 9.9%.

For the compound `CNS(=O)(=O)Nc1cccc(Cc2c(CN3CCNCC3)c3cc(F)c(OC(=O)N(C)C)cc3oc2=O)c1F` [Compound 134], at CYP1A2 (human liver microsomes, 10 μM, substrate phenacetin), the “CYP-1A2 (Phenacetin) mean percentage CYP inhibition” value is −0.9%. Further, the “CYP-2C19 (Mephenytoin) mean percentage CYP inhibition” value at CYP2C19 came out at 20.6%.

Source of the values: patent US20250179057A1, “MEK IMMUNE ONCOLOGY INHIBITORS AND THERAPEUTIC USES THEREOF” (Immuneering Corporation, priority 2022, published 2025).
